Data reported in PMC11942486, “The Impact of a Quinone Scaffold on Thermo-TRPs Modulation by Dimethylheptyl Phytocannabinoids” (International Journal of Molecular Sciences, 2025).
Like-named read-outs stand apart in the source and are kept apart here.

Tests used:
rat TRPV4 [1] = molecular target: T1, rat TRPV4 (Rattus norvegicus, UniProt Q9ERZ8); set-up: method as in PMID 34440274
T1 construct: expressed in transfected cells

human TRPV1 [2] = molecular target: T2, human TRPV1 (Homo sapiens, UniProt Q8NER1); set-up: method as in PMID 34440274
T2 construct: expressed in transfected cells

rat TRPA1 [3] = molecular target: T3, rat TRPA1 (Rattus norvegicus, UniProt Q6RI86); set-up: method as in PMID 34440274; settings: cited from earlier work; for TRPA1 Efficacy (% AITC 100 μM): agonist effect as % of AITC 100 μM, HEK-293 rat TRPA1
T3 construct: expressed in transfected cells

rat TRPV3 [4] = molecular target: T4, rat TRPV3 (Rattus norvegicus, UniProt Q4QYD9); set-up: method as in PMID 34440274
T4 construct: expressed in transfected cells
T4 sequence (Q4QYD9 1-791): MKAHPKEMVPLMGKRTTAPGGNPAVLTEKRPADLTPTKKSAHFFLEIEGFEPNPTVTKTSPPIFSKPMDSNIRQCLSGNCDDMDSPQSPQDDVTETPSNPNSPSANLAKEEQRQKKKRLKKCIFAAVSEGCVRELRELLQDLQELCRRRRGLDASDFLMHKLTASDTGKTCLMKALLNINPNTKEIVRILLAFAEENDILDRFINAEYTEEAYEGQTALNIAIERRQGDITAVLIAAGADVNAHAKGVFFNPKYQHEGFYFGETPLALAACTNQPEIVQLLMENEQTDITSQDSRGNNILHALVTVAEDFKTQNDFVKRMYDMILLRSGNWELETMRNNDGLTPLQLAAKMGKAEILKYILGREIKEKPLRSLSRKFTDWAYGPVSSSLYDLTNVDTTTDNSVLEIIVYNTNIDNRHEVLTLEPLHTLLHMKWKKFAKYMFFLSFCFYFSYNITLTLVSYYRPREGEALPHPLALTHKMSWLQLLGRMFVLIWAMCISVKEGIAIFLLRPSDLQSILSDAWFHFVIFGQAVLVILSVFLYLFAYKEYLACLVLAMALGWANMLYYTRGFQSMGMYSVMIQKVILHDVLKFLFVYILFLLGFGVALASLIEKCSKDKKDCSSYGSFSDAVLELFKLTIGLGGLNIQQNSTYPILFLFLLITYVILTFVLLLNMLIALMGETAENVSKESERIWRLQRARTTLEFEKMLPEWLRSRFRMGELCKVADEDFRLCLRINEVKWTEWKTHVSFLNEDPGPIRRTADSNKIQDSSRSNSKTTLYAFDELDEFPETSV

rat TRPV2 [5] = molecular target: T5, rat TRPV2 (Rattus norvegicus, UniProt Q9WUD2); set-up: method as in PMID 34440274; settings: cited from earlier work; for TRPV2 Efficacy (% Ionomycin 4 μM): agonist effect as % of ionomycin 4 μM
T5 construct: expressed in transfected cells
T5 sequence (Q9WUD2 1-761): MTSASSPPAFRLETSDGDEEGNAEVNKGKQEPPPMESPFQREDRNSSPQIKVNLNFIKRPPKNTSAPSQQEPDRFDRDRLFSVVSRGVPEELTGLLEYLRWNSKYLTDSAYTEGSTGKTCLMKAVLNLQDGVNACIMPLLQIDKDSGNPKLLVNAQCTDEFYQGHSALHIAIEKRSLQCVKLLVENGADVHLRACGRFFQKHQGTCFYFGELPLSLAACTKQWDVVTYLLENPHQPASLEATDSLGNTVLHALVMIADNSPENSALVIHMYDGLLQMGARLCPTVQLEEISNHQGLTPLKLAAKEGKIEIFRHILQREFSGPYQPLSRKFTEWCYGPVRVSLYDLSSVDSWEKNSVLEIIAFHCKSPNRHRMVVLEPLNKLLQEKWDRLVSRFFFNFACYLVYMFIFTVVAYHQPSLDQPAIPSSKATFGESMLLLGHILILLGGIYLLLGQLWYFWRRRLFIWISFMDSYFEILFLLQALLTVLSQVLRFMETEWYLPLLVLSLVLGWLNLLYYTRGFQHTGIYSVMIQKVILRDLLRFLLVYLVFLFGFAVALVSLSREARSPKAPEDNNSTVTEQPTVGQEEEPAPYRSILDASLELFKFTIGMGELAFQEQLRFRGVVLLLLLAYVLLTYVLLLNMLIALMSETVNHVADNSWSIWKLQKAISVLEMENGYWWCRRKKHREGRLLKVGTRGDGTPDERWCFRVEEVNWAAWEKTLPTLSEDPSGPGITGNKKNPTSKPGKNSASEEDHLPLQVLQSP

rat TRPM8 [6] = molecular target: T6, rat TRPM8 (Rattus norvegicus, UniProt Q8R455); set-up: method as in PMID 34440274; settings: vs Icilin 0.25 μM; 22 °C; cited from earlier work
T6 construct: expressed in transfected cells

rat TRPV3 [7] = molecular target: T4, rat TRPV3; assay: Thermo-TRP assay: [Ca2+]i elevation (Fluo-4) in HEK-293 cells transfected with TRPV3; type: cell-based
Description: (§1) The compounds were tested on HEK-293 cells either stably transfected with rat TRPA1, TRPV2, TRPV3, TRPV4, TRPM8 or human TRPV1 or not-transfected, by performing a continuous monitoring of the intracellular calcium ([Ca^2+]i) elevation during the experiments, following the protocol already described. On the day of the experiment, the cells were loaded for 1 h in the dark at room temperature with the fluorescent probe Fluo-4 AM (4 μM in DMSO containing 0.02% Pluronic F-127). The cells were rinsed, resuspended in Tyrode’s solution (145 mM NaCl, 2.5 mM KCl, 1.5 mM CaCl2, 1.2 mM MgCl2, 10 mM D-glucose, and 10 mM HEPES, pH 7.4), and transferred to a quartz cuvette of a spectrofluorimeter (PerkinElmer LS50B; λEX = 488 nm, λEM = 516 nm) equipped with a PTP-1 fluorescence Peltier system (PerkinElmer Life and Analytical Sciences, Waltham, MA, USA) under continuous stirring. Cell fluorescence before and after the addition of various concentrations of tested compounds was measured, normalizing the effects against the response to ionomycin (IM, 4 μM). The effect on [Ca^2+]i in non-transfected HEK-293 cells were used as the baseline and subtracted from the values obtained from the transfected ones. The efficacy of the agonists was determined by normalizing their effect to the maximum Ca^2+ influx effect on [Ca^2+]i observed with application of 4μM ionomycin. The effects of TRPA1 agonists are expressed as a percentage of the effect obtained with 100 μM allyl isothiocyanate (AITC). In the TRPV3 assay, rat TRPV3-expressing HEK-293 cells were first sensitized with the structurally unrelated agonist 2-aminoethoxydiphenyl borate (100 μM). For the TRPM8, the experiments were carried out at 22 °C. The potency (EC50 values) is determined as the concentration required to produce half-maximal increases in [Ca^2+]i. Antagonist/desensitizing behavior is evaluated against the agonist of the TRP analyzed by adding the compounds directly in the quartz cuvette 5 min before stimulation of cells with the agonist (allylisothiocyanate (100 μM) for TRPA1, capsaicin (0.1 μM) for TRPV1, cannabidiol (2 μM) for TRPV2, thymol (100 μM) for TRPV3, GSK1016790A (10 nM) for TRPV4, and icilin (0.25 μM) for TRPM8). The IC50 value is expressed as the concentration exerting a half-maximal inhibition of the agonist effect, taking as 100% the effect on [Ca^2+]i exerted by the agonist alone. A dose-response curve fitting (sigmoidal dose-response variable slope) and parameter estimation were performed with Graph-Pad Prism 8 (GraphPad Software Inc., San Diego, CA, USA). All determinations were performed at least in triplicate.

rat TRPV2 [8] = molecular target: T5, rat TRPV2; assay: Thermo-TRP assay: [Ca2+]i elevation (Fluo-4) in HEK-293 cells transfected with TRPV2; type: cell-based
Description: as §1

rat TRPM8 [9] = molecular target: T6, rat TRPM8; assay: Thermo-TRP assay: [Ca2+]i elevation (Fluo-4) in HEK-293 cells transfected with TRPM8; type: cell-based
Description: (§2) The compounds were tested on HEK-293 cells either stably transfected with rat TRPA1, TRPV2, TRPV3, TRPV4, TRPM8 or human TRPV1 or not-transfected, by performing a continuous monitoring of the intracellular calcium ([Ca^2+]i) elevation during the experiments, following the protocol already described. […] Cell fluorescence before and after the addition of various concentrations of tested compounds was measured, normalizing the effects against the response to ionomycin (IM, 4 μM). The effect on [Ca^2+]i in non-transfected HEK-293 cells were used as the baseline and subtracted from the values obtained from the transfected ones. The efficacy of the agonists was determined by normalizing their effect to the maximum Ca^2+ influx effect on [Ca^2+]i observed with application of 4μM ionomycin. The effects of TRPA1 agonists are expressed as a percentage of the effect obtained with 100 μM allyl isothiocyanate (AITC). In the TRPV3 assay, rat TRPV3-expressing HEK-293 cells were first sensitized with the structurally unrelated agonist 2-aminoethoxydiphenyl borate (100 μM). For the TRPM8, the experiments were carried out at 22 °C. The potency (EC50 values) is determined as the concentration required to produce half-maximal increases in [Ca^2+]i. […] A dose-response curve fitting (sigmoidal dose-response variable slope) and parameter estimation were performed with Graph-Pad Prism 8 (GraphPad Software Inc., San Diego, CA, USA). All determinations were performed at least in triplicate.

rat TRPV4 [10] = molecular target: T1, rat TRPV4; assay: Thermo-TRP assay: [Ca2+]i elevation (Fluo-4) in HEK-293 cells transfected with TRPV4; type: cell-based
Description: as §2

human TRPV1 [11] = molecular target: T2, human TRPV1; assay: Thermo-TRP assay: [Ca2+]i elevation (Fluo-4) in HEK-293 cells transfected with TRPV1; type: cell-based
Description: as §2

rat TRPA1 [12] = molecular target: T3, rat TRPA1; assay: Thermo-TRP assay: [Ca2+]i elevation (Fluo-4) in HEK-293 cells transfected with TRPA1; type: cell-based
Description: as §2

[13] = vs GSK1016790A 10 nM; read-out: IC50 TRPV4; cited from earlier work
[14] = vs Capsaicin 0.1 μM; read-out: IC50 TRPV1; cited from earlier work
[15] = agonist effect as % of ionomycin 4 μM; cited from earlier work
[16] = antagonist/desensitizing, vs Thymol 100 μM; cited from earlier work
[17] = read-out: IC50 TRPV4; vs GSK1016790A 10 nM; cited from earlier work
[18] = read-out: IC50 TRPV1; vs Capsaicin 0.1 μM; cited from earlier work

T3 sequence (Q6RI86 whole entry): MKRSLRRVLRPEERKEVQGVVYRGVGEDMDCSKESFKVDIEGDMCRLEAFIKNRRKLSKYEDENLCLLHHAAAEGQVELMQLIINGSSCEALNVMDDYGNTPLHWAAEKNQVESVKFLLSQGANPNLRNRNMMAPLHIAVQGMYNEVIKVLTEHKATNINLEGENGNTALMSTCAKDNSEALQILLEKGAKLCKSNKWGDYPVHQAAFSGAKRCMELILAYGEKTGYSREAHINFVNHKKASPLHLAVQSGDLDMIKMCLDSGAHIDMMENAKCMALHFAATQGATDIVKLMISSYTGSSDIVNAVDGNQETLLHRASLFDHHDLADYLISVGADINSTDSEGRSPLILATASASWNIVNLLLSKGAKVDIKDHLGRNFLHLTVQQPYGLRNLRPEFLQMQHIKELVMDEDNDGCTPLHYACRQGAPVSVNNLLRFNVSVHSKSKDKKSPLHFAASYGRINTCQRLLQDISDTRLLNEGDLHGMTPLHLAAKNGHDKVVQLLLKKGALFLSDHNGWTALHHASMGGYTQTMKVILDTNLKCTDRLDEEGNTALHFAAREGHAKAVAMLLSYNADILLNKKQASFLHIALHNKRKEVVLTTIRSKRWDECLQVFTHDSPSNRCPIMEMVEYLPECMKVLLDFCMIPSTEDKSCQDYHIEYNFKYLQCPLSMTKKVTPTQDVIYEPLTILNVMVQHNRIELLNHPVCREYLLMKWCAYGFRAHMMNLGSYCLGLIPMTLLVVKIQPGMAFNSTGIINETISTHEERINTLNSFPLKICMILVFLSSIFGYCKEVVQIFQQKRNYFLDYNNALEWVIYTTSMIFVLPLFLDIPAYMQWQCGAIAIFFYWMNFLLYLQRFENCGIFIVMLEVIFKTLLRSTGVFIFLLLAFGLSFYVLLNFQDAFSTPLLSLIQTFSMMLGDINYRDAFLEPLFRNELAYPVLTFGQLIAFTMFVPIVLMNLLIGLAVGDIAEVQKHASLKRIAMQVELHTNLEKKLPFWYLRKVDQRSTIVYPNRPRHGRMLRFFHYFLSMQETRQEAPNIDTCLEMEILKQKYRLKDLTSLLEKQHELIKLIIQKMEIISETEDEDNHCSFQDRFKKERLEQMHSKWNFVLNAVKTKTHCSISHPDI
T2 sequence (Q8NER1 whole entry): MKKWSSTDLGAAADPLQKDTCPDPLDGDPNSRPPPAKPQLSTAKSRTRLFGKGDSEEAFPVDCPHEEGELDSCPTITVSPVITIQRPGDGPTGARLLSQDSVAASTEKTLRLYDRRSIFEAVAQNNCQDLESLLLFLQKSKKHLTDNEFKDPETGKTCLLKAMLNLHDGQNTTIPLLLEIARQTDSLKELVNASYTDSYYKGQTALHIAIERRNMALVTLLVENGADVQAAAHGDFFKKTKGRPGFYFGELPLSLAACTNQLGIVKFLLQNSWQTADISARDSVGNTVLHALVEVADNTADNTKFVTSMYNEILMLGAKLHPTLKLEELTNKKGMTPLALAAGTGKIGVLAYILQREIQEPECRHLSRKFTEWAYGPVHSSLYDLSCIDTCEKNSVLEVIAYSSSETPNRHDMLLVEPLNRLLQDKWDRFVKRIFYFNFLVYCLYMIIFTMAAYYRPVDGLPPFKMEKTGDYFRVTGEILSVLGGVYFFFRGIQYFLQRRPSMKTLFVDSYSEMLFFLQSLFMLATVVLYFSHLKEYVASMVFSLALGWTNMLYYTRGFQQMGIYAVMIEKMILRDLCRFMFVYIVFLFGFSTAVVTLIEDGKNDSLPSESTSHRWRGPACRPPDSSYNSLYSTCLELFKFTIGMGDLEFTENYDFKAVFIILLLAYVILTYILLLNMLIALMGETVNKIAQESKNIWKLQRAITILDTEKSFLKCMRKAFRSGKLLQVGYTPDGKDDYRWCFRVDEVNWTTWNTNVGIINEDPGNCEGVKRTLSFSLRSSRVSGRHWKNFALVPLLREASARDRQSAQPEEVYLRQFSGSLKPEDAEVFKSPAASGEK
T1 sequence (Q9ERZ8 whole entry): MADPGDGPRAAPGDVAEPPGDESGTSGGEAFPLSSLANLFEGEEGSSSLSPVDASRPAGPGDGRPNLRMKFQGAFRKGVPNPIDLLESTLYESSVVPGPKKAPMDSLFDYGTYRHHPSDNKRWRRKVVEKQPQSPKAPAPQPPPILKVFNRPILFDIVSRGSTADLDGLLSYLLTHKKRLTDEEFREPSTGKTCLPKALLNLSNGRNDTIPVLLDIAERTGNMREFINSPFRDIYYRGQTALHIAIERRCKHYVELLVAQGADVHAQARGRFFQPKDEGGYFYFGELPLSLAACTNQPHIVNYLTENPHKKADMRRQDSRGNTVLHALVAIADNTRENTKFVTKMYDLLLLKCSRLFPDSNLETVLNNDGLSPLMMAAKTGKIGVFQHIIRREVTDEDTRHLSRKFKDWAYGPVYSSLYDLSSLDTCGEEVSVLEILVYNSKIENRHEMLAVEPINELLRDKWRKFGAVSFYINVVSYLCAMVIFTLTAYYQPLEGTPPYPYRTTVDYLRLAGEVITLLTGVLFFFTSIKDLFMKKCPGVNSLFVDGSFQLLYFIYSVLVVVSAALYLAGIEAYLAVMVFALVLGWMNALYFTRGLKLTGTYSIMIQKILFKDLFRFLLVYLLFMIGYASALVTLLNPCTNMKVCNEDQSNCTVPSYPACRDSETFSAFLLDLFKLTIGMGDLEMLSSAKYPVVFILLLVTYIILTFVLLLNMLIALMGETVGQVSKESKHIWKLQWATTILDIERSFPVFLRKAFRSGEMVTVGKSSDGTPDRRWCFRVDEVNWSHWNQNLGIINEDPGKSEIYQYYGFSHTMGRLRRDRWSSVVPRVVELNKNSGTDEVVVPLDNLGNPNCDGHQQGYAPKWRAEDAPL
T6 sequence (Q8R455 whole entry): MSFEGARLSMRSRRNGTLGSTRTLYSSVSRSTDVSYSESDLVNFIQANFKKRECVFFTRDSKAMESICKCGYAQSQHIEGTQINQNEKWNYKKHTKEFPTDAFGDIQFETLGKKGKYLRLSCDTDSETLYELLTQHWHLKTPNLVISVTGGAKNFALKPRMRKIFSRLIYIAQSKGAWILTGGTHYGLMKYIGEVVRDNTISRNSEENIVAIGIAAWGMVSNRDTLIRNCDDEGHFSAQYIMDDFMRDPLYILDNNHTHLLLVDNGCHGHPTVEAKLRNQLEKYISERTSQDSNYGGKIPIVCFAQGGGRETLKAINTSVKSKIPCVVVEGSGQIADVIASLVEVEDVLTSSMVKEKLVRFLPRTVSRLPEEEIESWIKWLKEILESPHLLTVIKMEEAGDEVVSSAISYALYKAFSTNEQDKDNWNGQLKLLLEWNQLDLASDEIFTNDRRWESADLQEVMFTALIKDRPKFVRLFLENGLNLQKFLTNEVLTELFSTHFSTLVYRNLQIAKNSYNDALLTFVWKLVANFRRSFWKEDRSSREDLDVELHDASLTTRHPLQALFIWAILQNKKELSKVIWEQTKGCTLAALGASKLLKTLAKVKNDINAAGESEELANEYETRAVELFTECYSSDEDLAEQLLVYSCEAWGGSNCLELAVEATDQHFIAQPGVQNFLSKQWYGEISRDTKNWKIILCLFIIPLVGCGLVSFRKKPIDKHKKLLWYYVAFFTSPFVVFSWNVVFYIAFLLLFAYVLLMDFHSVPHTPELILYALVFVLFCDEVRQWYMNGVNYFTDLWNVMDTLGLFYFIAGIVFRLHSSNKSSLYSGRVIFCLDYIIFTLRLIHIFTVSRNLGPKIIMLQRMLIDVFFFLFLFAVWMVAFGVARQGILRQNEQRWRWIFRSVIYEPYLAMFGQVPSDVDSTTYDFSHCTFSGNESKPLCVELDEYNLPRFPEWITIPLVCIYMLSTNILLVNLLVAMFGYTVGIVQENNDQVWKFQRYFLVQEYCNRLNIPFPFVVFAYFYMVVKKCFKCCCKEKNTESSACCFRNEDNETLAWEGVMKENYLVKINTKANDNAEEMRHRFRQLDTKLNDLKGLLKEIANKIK

Row | SMILES | IC50 (rat TRPV4 [1]; [13]) [µM] | IC50 (human TRPV1 [2]; [14]) [µM] | TRPA1 Efficacy (% AITC 100 μM) (rat TRPA1 [3]) [%] | TRPV3 Efficacy (% Ionomycin 4 μM) (rat TRPV3 [4]; [15]) [%] | IC50 (rat TRPV3 [4]; [16]) [µM] | TRPV2 Efficacy (% Ionomycin 4 μM) (rat TRPV2 [5]) [%] | IC50 (rat TRPV4 [1]; [17]) [µM] | IC50 (human TRPV1 [2]; [18]) [µM] | other results
1 | C=C(C)[C@@H]1CCC(C)=C[C@H]1c1c(O)cc(C(C)(C)CCCCCC)cc1O [5a, DMH-CBD] | > 100 | > 100 | 133.4 ± 5.3 | 15.8 ± 0.4 | > 30 | <10 | – | – | –
2 | CCCCCCC(C)(C)c1cc(O)c2c(c1)OC(C)(C)[C@@H]1CC=C(C)C[C@@H]21 [6a, DMH-Δ⁸-THC] | – | – | 124.2 ± 4.0 | 53.8 ± 1.6 | – | <10 | > 100 | > 100 | –
3 | CCCCCCC(C)(C)c1cc(O)c(C/C=C(\C)CCC=C(C)C)c(O)c1 [7a, DMH-CBG] | – | > 100 | 99.2 ± 4.5 | 64.6 ± 4.8 | > 30 | 65.3 ± 0.7 | – | – | –
4 | CCCCCCC(C)(C)c1cc(O)c2c(c1)OC(C)(CCC=C(C)C)C=C2 (centres unmarked) [8a, DMH-CBC] | > 100 | > 100 | 120.4 ± 2.8 | 41.6 ± 1.8 | > 50 | 76.1 ± 0.6 | – | – | IC50 (rat TRPA1 [3]; read-out: IC50 TRPA1, antagonist/desensitizing, vs AITC 100 μM): 0.37 µM; EC50 (rat TRPV3 [4]; half-maximal increase in [Ca2+]i; read-out: TRPV3 Potency EC50; cited from earlier work): > 50 µM; IC50 (rat TRPM8 [6]): > 100 µM
5 | CCCCCCC(C)(C)c1cc(O)c2c(c1)OC(C)(C)c1ccc(C)cc1-2 [9a, DMH-CBN] | – | – | 132.3 ± 7.9 | 20.9 ± 3.0 | – | 10.5 ± 0.02 | > 100 | > 100 | EC50 (rat TRPV3 [4]; read-out: TRPV3 Potency EC50; half-maximal increase in [Ca2+]i; cited from earlier work): 41.4 ± 21.6 µM; IC50 (rat TRPV2 [5]; read-out: IC50 TRPV2, vs CBD 2 μM): > 50 µM; EC50 (rat TRPV2 [5]; read-out: TRPV2 Potency EC50, half-maximal increase in [Ca2+]i): 0.25 ± 0.03 µM
6 | CCCCCCC(C)(C)C1=CC2=C(C(=O)C1=O)c1cc(C)ccc1C(C)(C)O2 [9b] | – | – | – | – | – | – | – | – | TRPV3 Efficacy (% Ionomycin 4 μM) (rat TRPV3 [7]; agonist effect as % of ionomycin 4 μM, cells sensitized with 2-aminoethoxydiphenyl borate 100 μM): 32.5 ± 0.65%; IC50 (rat TRPV3 [7]; antagonist/desensitizing, vs Thymol 100 μM): 19.4 ± 3.5 µM; EC50 (rat TRPV3 [7]; half-maximal increase in [Ca2+]i, read-out: TRPV3 Potency EC50): 1.15 ± 0.15 µM; TRPV2 Efficacy (% Ionomycin 4 μM) (rat TRPV2 [8]; agonist effect as % of ionomycin 4 μM): 23.4 ± 3.7%; EC50 (rat TRPV2 [8]; half-maximal increase in [Ca2+]i, read-out: TRPV2 Potency EC50): 2 ± 1.6 µM; IC50 (rat TRPV2 [8]; vs CBD 2 μM): 5.2 ± 0.6 µM; IC50 (rat TRPM8 [9]): > 100 µM; IC50 (rat TRPV4 [10]): > 100 µM; IC50 (human TRPV1 [11]): > 100 µM; IC50 (rat TRPA1 [12]; IC50 TRPA1, antagonist/desensitizing, added 5 min before AITC 100 μM): 15.1 ± 2.4 µM; TRPA1 Efficacy (% AITC 100 μM) (rat TRPA1 [12]; agonist effect as % of AITC 100 μM, HEK-293 rat TRPA1): 20.5%
